Converted amounts (≈) assume the structure as drawn.
How the values were obtained:
[1] = Phosphate-buffered saline (PBS) solubility of compounds; type: physicochemical; settings: aqueous buffer, thermodynamic from solid, PBS pH 7.5, 0.5 mg/mL, vortexed 90 min, filtered, LC-MS/MS, read-out: Solubility Range
Description: PBS solutions (pH 7.5) were prepared according to the following compositions and stored at 4° C. Test compounds were dissolved in PBS (pH 7.5) at 0.5 mg/mL and vortexed for 90 min. The PBS solution was sequentially filtered through a 0.45, 1.2, […] syringe filter. Concentration of test compounds were determined using LC-MS/MS with appropriate dilution of the samples.

human wild type-CFTR = human wild type-CFTR (Homo sapiens, UniProt P13569); experiment: Cell-based YFP assay; design: expressed in transfected cells; host or cells: CHO-K1 (Chinese hamster ovary); settings: CHO-K1 cells expressing human wild type-CFTR and YFP-H148Q/I152L; forskolin 20 μM = 100% activity; read-out: Cell-based YFP Assay (EC50) Concentration Range
Outline: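 I⁻-driven YFP fluorescence quenching at 37 °C: 2 s baseline, addition of 140 mM iodide solution, then 14 s of readings at 0.4 s intervals. Cells were CHO-K1 expressing human wild-type CFTR plus YFP-H148Q/I152L. EC50 derived from averaged triplicates.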

Sequence of human wild type-CFTR (P13569 whole entry): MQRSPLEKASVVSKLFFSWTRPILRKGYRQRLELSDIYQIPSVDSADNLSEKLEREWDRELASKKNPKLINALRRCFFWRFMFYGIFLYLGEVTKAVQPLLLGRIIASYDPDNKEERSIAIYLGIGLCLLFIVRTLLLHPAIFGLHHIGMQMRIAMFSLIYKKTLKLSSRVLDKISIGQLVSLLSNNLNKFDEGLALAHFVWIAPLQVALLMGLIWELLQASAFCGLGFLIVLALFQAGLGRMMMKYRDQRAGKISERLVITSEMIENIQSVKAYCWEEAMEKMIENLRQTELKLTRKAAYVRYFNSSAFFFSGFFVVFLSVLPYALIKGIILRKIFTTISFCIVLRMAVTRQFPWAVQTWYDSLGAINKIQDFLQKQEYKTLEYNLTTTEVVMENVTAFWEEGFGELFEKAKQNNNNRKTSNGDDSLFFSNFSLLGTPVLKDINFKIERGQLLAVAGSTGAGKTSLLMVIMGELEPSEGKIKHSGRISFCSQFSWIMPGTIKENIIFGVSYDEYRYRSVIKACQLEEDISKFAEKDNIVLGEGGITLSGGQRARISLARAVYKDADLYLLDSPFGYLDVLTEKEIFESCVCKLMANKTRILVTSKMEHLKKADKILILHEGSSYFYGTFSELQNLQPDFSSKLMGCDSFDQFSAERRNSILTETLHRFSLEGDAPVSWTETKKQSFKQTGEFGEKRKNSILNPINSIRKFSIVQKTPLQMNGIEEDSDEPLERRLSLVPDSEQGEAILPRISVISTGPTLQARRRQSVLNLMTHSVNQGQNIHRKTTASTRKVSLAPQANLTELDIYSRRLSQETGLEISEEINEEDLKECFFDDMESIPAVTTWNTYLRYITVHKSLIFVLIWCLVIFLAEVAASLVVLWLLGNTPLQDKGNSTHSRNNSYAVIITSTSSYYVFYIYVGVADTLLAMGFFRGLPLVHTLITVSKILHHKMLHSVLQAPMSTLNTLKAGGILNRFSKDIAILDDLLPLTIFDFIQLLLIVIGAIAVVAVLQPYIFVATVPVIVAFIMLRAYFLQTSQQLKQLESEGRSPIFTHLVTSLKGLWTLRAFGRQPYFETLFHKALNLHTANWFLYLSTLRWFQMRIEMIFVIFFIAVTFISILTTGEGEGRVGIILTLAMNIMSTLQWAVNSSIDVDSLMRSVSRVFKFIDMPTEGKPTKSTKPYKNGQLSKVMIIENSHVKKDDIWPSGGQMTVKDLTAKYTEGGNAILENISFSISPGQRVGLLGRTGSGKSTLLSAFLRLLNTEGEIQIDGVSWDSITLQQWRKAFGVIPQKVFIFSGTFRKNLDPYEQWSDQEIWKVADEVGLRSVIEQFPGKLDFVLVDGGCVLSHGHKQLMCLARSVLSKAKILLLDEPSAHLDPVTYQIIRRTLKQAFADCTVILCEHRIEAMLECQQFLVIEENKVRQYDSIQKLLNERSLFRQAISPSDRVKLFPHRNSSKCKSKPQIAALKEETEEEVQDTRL

solubility at 90 min [1] [µg/mL] | EC50 (human wild type-CFTR) [nM] | SMILES
< 0.1 | < 200 | COc1ccc(-c2ccnc3cc(C(=O)Nc4ccccc4)nn23)cc1OC [Compound 1, 7-(3,4-dimethoxyphenyl)-N-phenylpyrazolo[1,5-a] pyrimidine-2-carboxamide]
< 0.1 |  | COC(=O)c1cccc(NC(=O)c2cc3nccc(-c4ccc(OC)c(OC)c4)n3n2)c1 [Compound 8, methyl 3-(7-(3,4-dimethoxyphenyl)pyrazolo [1,5-a]pyrimidine-2-carboxamido)benzoate]
0.1 to 10 (≈ 0.228 to 22.8 µM) |  | COc1ccc(-c2ccnc3cc(C(=O)N[C@H]4CC[C@@H](C(=O)OC)CC4)nn23)cc1OC [Compound 9, methyl (1S,4S)-4-(7-(3,4-dimethoxyphenyl)pyrazolo [1,5-a]pyrimidine-2-carboxamido)cyclohexane-1-carboxylate]
> 10 | ≥ 2000 | COc1ccc(-c2ccnc3cc(C(=O)Nc4cccc(C(=O)O)c4)nn23)cc1OC [Compound 16, 3-(7-(3,4-dimethoxyphenyl)pyrazolo[1,5-a]pyrimidine-2-carboxamido)benzoic acid]
< 0.1 | 200 to 2000 | COc1ccc(-c2ccnc3cc(C(=O)Nc4cccnc4)nn23)cc1OC [Compound 18, 7-(3,4-dimethoxyphenyl)-N-(pyridin-3-yl) pyrazolo[1,5-a]pyrimidine-2-carboxamide]
> 10 |  | COc1ccc(-c2ccnc3cc(C(=O)N[C@H]4CC[C@@H](C(=O)O)CC4)nn23)cc1OC [Compound 19, (1S,4S)-4-(7-(3,4-dimethoxyphenyl)pyrazolo [1,5-a]pyrimidine-2-carboxamido)cyclohexane-1-carboxylic acid]
> 10 |  | COc1ccc(-c2ccnc3cc(C(=O)N[C@H]4CC[C@H](C(=O)O)CC4)nn23)cc1OC [Compound 21, (1R,4R)-4-(7-(3,4-dimethoxyphenyl)pyrazolo [1,5-a]pyrimidine-2-carboxamido)cyclohexane-1-carboxylic acid]
< 0.1 | < 200 | COC(=O)c1ccc(NC(=O)c2cc3nccc(-c4cc(OC)c(OC)c(OC)c4)n3n2)cc1 [Compound 32, methyl 4-(7-(3,4,5-trimethoxyphenyl)pyrazolo [1,5-a]pyrimidine-2-carboxamido)benzoate]
< 0.1 | < 200 | CCOC(=O)COc1ccc(NC(=O)c2cc3nccc(-c4ccc(OC)c(OC)c4)n3n2)cc1 [Compound 34, ethyl 2-(4-(7-(3,4-dimethoxyphenyl)pyrazolo [1,5-a]pyrimidine-2-carboxamido)phenoxy) acetate]
< 0.1 | 200 to 2000 | COC(=O)c1ccc(NC(=O)c2cc3nccc(-c4ccc(OC)c(Cl)c4)n3n2)cc1 [Compound 39, methyl 4-(7-(3-chloro-4-methoxyphenyl)pyrazolo [1,5-a]pyrimidine-2-carboxamido)benzoate]
< 0.1 | < 200 | COC(=O)[C@H](C)NC(=O)c1ccc(NC(=O)c2cc3nccc(-c4ccc(OC)c(OC)c4)n3n2)cc1 [Compound 42, methyl (4-(7-(3,4-dimethoxyphenyl)pyrazolo [1,5-a]pyrimidine-2-carboxamido)benzoyl)-L-alaninate]
< 0.1 | < 200 | COC(=O)[C@H](CO)NC(=O)c1ccc(NC(=O)c2cc3nccc(-c4ccc(OC)c(OC)c4)n3n2)cc1 [Compound 43, methyl (4-(7-(3,4-dimethoxyphenyl)pyrazolo [1,5-a]pyrimidine-2-carboxamido)benzoyl)-L-serinate]
< 0.1 | < 200 | COC(=O)[C@H](Cc1ccccc1)NC(=O)c1ccc(NC(=O)c2cc3nccc(-c4ccc(OC)c(OC)c4)n3n2)cc1 [Compound 46, methyl (4-(7-(3,4-dimethoxyphenyl)pyrazolo [1,5-a]pyrimidine-2-carboxamido)benzoyl)-L-phenylalaninate]
< 0.1 | < 200 | COC(=O)[C@@H]1CCCN1C(=O)c1ccc(NC(=O)c2cc3nccc(-c4ccc(OC)c(OC)c4)n3n2)cc1 [Compound 47, methyl (4-(7-(3,4-dimethoxyphenyl)pyrazolo [1,5-a]pyrimidine-2-carboxamido)benzoyl)-L-prolinate]
< 0.1 | < 200 | COc1ccc(-c2ccnc3cc(C(=O)Nc4ccc(C(N)=O)cc4)nn23)cc1OC [Compound 48, N-(4-carbamoylphenyl)-7-(3,4-dimethoxyphenyl)pyrazolo [1,5-a]pyrimidine-2-carboxamide]
< 0.1 | < 200 | COc1ccc(-c2ccnc3cc(C(=O)Nc4ccc(C(=O)N5CCN(C(=O)OC(C)(C)C)CC5)cc4)nn23)cc1OC [Compound 51, tert-butyl 4-(4-(7-(3,4-dimethoxyphenyl)pyrazolo [1,5-a]pyrimidine-2-carboxamido)benzoyl) piperazine-1-carboxylate]
< 0.1 | < 200 | COc1ccc(-c2ccnc3cc(C(=O)Nc4cccc(C(=O)N5CCOCC5)c4)nn23)cc1OC [Compound 55, 7-(3,4-dimethoxyphenyl)-N-(3-(morpholine-4-carbonyl)phenyl)pyrazolo [1,5-a]pyrimidine-2-carboxamide]
< 0.1 | < 200 | COc1ccc(-c2ccnc3cc(C(=O)Nc4cccc(C(=O)N5CCN(C(=O)OC(C)(C)C)CC5)c4)nn23)cc1OC [Compound 56, tert-butyl 4-(3-(7-(3,4-dimethoxyphenyl)pyrazolo [1,5-a]pyrimidine-2-carboxamido)benzoyl) piperazine-1-carboxylate]
< 0.1 | < 200 | COC(=O)[C@H](CC(C)C)NC(=O)c1ccc(NC(=O)c2cc3nccc(-c4ccc(OC)c(OC)c4)n3n2)cc1 [Compound 57, methyl (4-(7-(3,4-dimethoxyphenyl)pyrazolo [1,5-a]pyrimidine-2-carboxamido)benzoyl)-L-leucinate]
< 0.1 | < 200 | COC(=O)[C@@H](NC(=O)c1ccc(NC(=O)c2cc3nccc(-c4ccc(OC)c(OC)c4)n3n2)cc1)C(C)C [Compound 58, methyl (4-(7-(3,4-dimethoxyphenyl)pyrazolo [1,5-a]pyrimidine-2-carboxamido)benzoyl)-L-valinate]
0.1 to 10 (≈ 0.214 to 21.4 µM) | 200 to 2000 | COc1ccc(-c2ccnc3cc(C(=O)N4CCN(C(=O)OC(C)(C)C)CC4)nn23)cc1OC [Compound 62, tert-butyl 4-(7-(3,4-dimethoxyphenyl)pyrazolo[1,5-a]pyrimidine-2-carbonyl)piperazine-1-carboxylate]
0.1 to 10 (≈ 0.208 to 20.8 µM) | 200 to 2000 | COc1ccc(-c2ccnc3cc(C(=O)NC4CCN(C(=O)OC(C)(C)C)CC4)nn23)cc1OC [Compound 63, tert-butyl 4-(7-(3,4-dimethoxyphenyl)pyrazolo[1,5-a]pyrimidine-2-carboxamido)piperidine-1-carboxylate]
0.1 to 10 (≈ 0.208 to 20.8 µM) |  | COc1ccc(-c2ccnc3cc(C(=O)N4CCC(NC(=O)OC(C)(C)C)CC4)nn23)cc1OC [Compound 100, tert-butyl (1-(7-(3,4-dimethoxyphenyl)pyrazolo[1,5-a]pyrimidine-2-carbonyl)piperidin-4-yl)carbamate]
 | < 200 | COc1ccc(-c2ccnc3cc(C(=O)N4CCN(C(=O)c5ccccc5)[C@@H](C(C)C)C4)nn23)cc1OC [Compound 376, (S)-(4-benzoyl-3-isopropylpiperazin-1-yl)(7-(3,4-dimethoxyphenyl)pyrazolo[1,5-a]pyrimidin-2-yl)methanone]
 | < 200 | CCC[C@H]1CN(C(=O)c2cc3nccc(-c4ccc(OC)c(OC)c4)n3n2)CCN1C(=O)c1ccccc1 [Compound 377, (S)-(4-benzoyl-3-propylpiperazin-1-yl) (7-(3,4-dimethoxyphenyl)pyrazolo [1,5-a]pyrimidin-2-yl)methanone]
 | < 200 | COc1ccc(-c2ccnc3cc(C(=O)N4CCN(C(=O)c5ccccc5)[C@@H](C5CC5)C4)nn23)cc1OC [Compound 378, (S)-(4-benzoyl-3-cyclopropylpiperazin-1-yl)(7-(3,4-dimethoxyphenyl)pyrazolo[1,5-a]pyrimidin-2-yl) methanone]
 | < 200 | COc1ccc(-c2ccnc3cc(C(=O)N4CCN(C(=O)c5ccsc5)[C@@H](C)C4)nn23)cc1OC [Compound 379, (S)-(7-(3,4-dimethoxyphenyl)pyrazolo[1,5-a]pyrimidin-2-yl)(3-methyl-4-(thiophene-3-carbonyl)piperazin-1-yl)methanone]
 | < 200 | COc1ccc(-c2ccnc3cc(C(=O)N4CCN(C(=O)c5ccccc5C)[C@@H](C)C4)nn23)cc1OC [Compound 381, (S)-(7-(3,4-dimethoxyphenyl)pyrazolo[1,5-a]pyrimidin-2-yl) (3-methyl-4-(2-methylbenzoyl)piperazin-1-yl)methanone]
 | < 200 | COc1ccc(-c2ccnc3cc(C(=O)N4CCN(C(=O)c5cccnc5)[C@@H](C)C4)nn23)cc1OC [Compound 382, (S)-(7-(3,4-dimethoxy-phenyl)pyrazolo[1,5-a]pyrimidin-2-yl) (3-methyl-4-nicotinoylpiperazin-1-yl)methanone]
 | 200 to 2000 | COc1ccc(-c2ccnc3cc(C(=O)N4CCN(C(=O)c5ncccn5)[C@@H](C)C4)nn23)cc1OC [Compound 383, (S)-(7-(3,4-dimethoxy-phenyl)pyrazolo[1,5-a]pyrimidin-2-yl)(3-methyl-4-(pyrimidine-2-carbonyl)piperazin-1-yl)methanone]

Reference: patent publication US20240199623A1 (ILDONG PHARMACEUTICAL CO., LTD., priority 2020, published 2024)
